Results reported in ChEMBL document CHEMBL3044728, “Synthesis and biological activity of new (E)-alpha-(Methoxyimino)benzeneacetate derivatives containing a substituted pyrazole ring” (2010).

Experiments:
Type in all cases: functional
Leucania = assay: Insecticidal activity against Leucania venalba at 600 mg/L relative to control
Blumeria graminis [1] = assay: Antifungal activity against Blumeria graminis assessed as inhibition at 400 mg/L relative to control
Blumeria graminis [2] = assay: Antifungal activity against Blumeria graminis assessed as inhibition at 1.56 mg/L relative to control
[3] = tested on: Pseudoperonospora cubensis; assay: Antifungal activity against Pseudoperonospora cubensis assessed as inhibition at 400 mg/L relative to control
Phytophthora infestans [4] = assay: Antifungal activity against Phytophthora infestans assessed as inhibition at 0.92 mg/L relative to control
Phytophthora infestans [5] = assay: Antifungal activity against Phytophthora infestans assessed as inhibition at 25 mg/L relative to control
Blumeria graminis [6] = assay: Antifungal activity against Blumeria graminis assessed as inhibition at 6.25 mg/L relative to control
Pyricularia oryzae [7] = assay: Antifungal activity against Magnaporthe oryzae assessed as inhibition at 0.92 mg/L relative to control
[8] = tested on: Pseudoperonospora cubensis; assay: Antifungal activity against Pseudoperonospora cubensis assessed as inhibition at 6.25 mg/L relative to control
[9] = tested on: Pseudoperonospora cubensis; assay: Antifungal activity against Pseudoperonospora cubensis assessed as inhibition at 25 mg/L relative to control
Pyricularia oryzae [10] = assay: Antifungal activity against Magnaporthe oryzae assessed as inhibition at 25 mg/L relative to control
Myzus persicae = assay: Insecticidal activity against Myzus persicae (green peach aphid) at 600 mg/L relative to control
Tetranychus cinnabarinus = assay: Acaricidal activity against Tetranychus cinnabarinus (carmine spider mite) at 600 mg/L relative to control
Culex pipiens pallens = assay: Insecticidal activity against Culex pipiens pallens (mosquito) at 600 mg/L relative to control

Row | SMILES | Activity (Leucania) | inhibition at 400 µg/mL (Blumeria graminis [1]) | inhibition at 1.56 µg/mL (Blumeria graminis [2]) | inhibition at 400 µg/mL [3] | inhibition at 0.92 µg/mL (Phytophthora infestans [4]) | inhibition at 25 µg/mL (Phytophthora infestans [5]) | inhibition at 6.25 µg/mL (Blumeria graminis [6]) | inhibition at 0.92 µg/mL (Pyricularia oryzae [7]) | inhibition at 6.25 µg/mL [8] | inhibition at 25 µg/mL [9] | inhibition at 25 µg/mL (Pyricularia oryzae [10]) | Activity (Myzus persicae) | Activity (Tetranychus cinnabarinus) | Activity (Culex pipiens pallens)
1 | CNC(=O)/C(=N/OC)c1ccccc1COc1c(C)c(-c2ccc(OC)cc2)nn1C | 100% | 100% | 75% | 98% | 50% | 80% | 100% | 50% | 55% | 85% | 100% | – | – | –
2 | CNC(=O)/C(=N/OC)c1ccccc1COc1c(C)c(-c2cc(C)ccc2C)nn1C | – | 100% | 0% | 100% | 100% | 100% | 40% | 100% | 50% | 100% | 100% | 100% | – | –
3 | CNC(=O)/C(=N/OC)c1ccccc1COc1cc(-c2ccccc2OC)nn1C | – | 100% | 45% | 75% | – | 0% | 100% | 0% | – | 10% | 100% | 100% | – | –
4 | CNC(=O)/C(=N/OC)c1ccccc1COc1cc(-c2ccc(C)c(C)c2)nn1C | – | 100% | 40% | 100% | 80% | 100% | 100% | 50% | 85% | 100% | 100% | 100% | 100% | –
5 | CNC(=O)/C(=N/OC)c1ccccc1COc1cc(-c2ccc(Cl)cc2)nn1C | – | 100% | 0% | 100% | – | – | 40% | – | 60% | 100% | 0% | 100% | – | 100%
6 | CCOc1ccc(-c2nn(C)c(OCc3ccccc3/C(=N\OC)C(=O)OC)c2C)cc1 | – | 100% | 50% | 100% | 50% | 100% | 100% | 50% | – | 40% | 100% | – | 100% | –
7 | CO/N=C(/C(=O)OC)c1ccccc1COc1c(C)c(-c2cc(C)ccc2C)nn1C | 100% | 100% | 20% | 100% | 60% | 100% | 40% | 100% | 40% | 80% | 100% | 100% | – | –
8 | CO/N=C(/C(=O)OC)c1ccccc1COc1cc(-c2ccc(C)cc2C)nn1C | – | 100% | – | 95% | 100% | 100% | 65% | 0% | 65% | 90% | 100% | 100% | – | –
9 | CO/N=C(/C(=O)OC)c1ccccc1COc1cc(-c2ccc(C)c(C)c2)nn1C | – | 100% | – | 98% | 80% | 100% | 30% | 50% | – | 40% | 100% | 100% | 100% | –
10 | CO/N=C(/C(=O)OC)c1ccccc1COc1cc(-c2ccc(Cl)cc2)nn1C | – | 100% | – | 100% | 50% | 80% | 40% | – | 80% | 90% | 80% | – | – | 100%
